These results are taken from patent publication US20080286335A1, “Enhancement Of The Calcium Sensing Receptor” (Smith & Nephew, Inc., priority 2007, published 2008).

Each structure is given as a SMILES string.

In assay [1] the test system is mouse calvarial cells. Description: Von Kossa staining (mineralised matrix) of mouse calvarial cell monolayers. The format is cell-based. The following applies: compared to 2.5 mM CaCl2 alone. As to the method: (§1) Osteoblastic cells were isolated from mouse calvarial tissue dissected from the heads of 2-3 day old freshly slaughtered mice pups using sequential enzymatic digestion. Cells were maintained in DMEM+10% Foetal Bovine Serum (FBS) at 37° C./5% CO2 in order to expand the cells before experimental use. Human dermal fibroblasts (HDFs) were used in experiments as an additional negative control.
Cells were seeded into 24 well plates at a concentration of 5×10^4 cells/well in αMEM+10% FBS (n=6). Experiments were set up to examine the amount of mineralisation at two different concentrations of calcium chloride (CaCl2) (1.8 mM and 2.5 mM) with and without L-amino acids (L-phenylalanine and L-tryptophan at 2.5 mM). Cells were cultured at 37° C./5% CO2 with media changes three times a week. […] Alizarin red stained monolayers were destained and the stain quantified spectophotometrically, whilst the Von Kossa staining was quantified using image analysis.

Assay [2] has as its system mouse calvarial cells. Description: Alizarin red staining (calcium deposition) of mouse calvarial cell monolayers. The format is cell-based. The following applies: 2.5 mM amino acid with 2.5 mM CaCl2, 2 week period, compared to 2.5 mM CaCl2 alone, FIG. 1 and 2. As to the method:
as §1
Cells were seeded into 24 well plates at a concentration of 5×10^4 cells/well in αMEM+10% FBS (n=6). Experiments were set up to examine the amount of mineralisation at two different concentrations of calcium chloride (CaCl2) (1.8 mM and 2.5 mM) with and without L-amino acids (L-phenylalanine and L-tryptophan at 2.5 mM). Cells were cultured at 37° C./5% CO2 with media changes three times a week. After 2 weeks and 3 weeks, the monolayers were stained to show the extent of mineralisation using Alizarin red (calcium deposition) and after 4 weeks with Von Kossa (mineralised matrix). Alizarin red stained monolayers were destained and the stain quantified spectophotometrically, whilst the Von Kossa staining was quantified using image analysis.

As for `N[C@@H](Cc1ccccc1)C(=O)O` [L-Phe, L-phenylalanine], the “amount of mineralised matrix” value is reported as “significantly increases” in the assay on mouse calvarial cells [1] (2.5 mM L-Phe with 2.5 mM CaCl2, 2 week period, Von Kossa image analysis, FIG. 4) and “significantly increases” in the assay on mouse calvarial cells [1] (2.5 mM L-Phe with 2.5 mM CaCl2, 4 week period, Von Kossa staining, FIG. 3). The calcium deposition result with mouse calvarial cells [2] is reported as “significantly increases”.

Take `N[C@@H](Cc1c[nH]c2ccccc12)C(=O)O` [L-Trp, L-tryptophan]: the calcium deposition result with mouse calvarial cells [2] is recorded as “significantly increases”.
